# Reference: BindingDB's records for doi:10.1016/j.bmcl.2009.11.072 (Roche Palo Alto, 2010)
# Assay: Antagonist activity at human recombinant CCR5 by cell-cell fusion assay
row,IC50,SMILES
1,1 nM,"Cc1cc(C#N)nc(C)c1C(=O)N1C[C@H]2CN(CCC3(c4ccccc4)CN(C(=O)C4CC(F)(F)C4)C3)C[C@H]2C1 [5-((3aR,6aS)-5-(2-(1-(3,3-difluorocyclobutanecarbonyl)-3-phenylazetidin-3-yl)ethyl)octahydropyrrolo[3,4-c]pyrrole-2-carbonyl)-4,6-dimethylpicolinonitrile]"
2,92 nM,"Cc1nc(C(F)(F)F)nc(C)c1C(=O)N1C[C@H]2CN(CCC3(c4ccccc4)CN(C(=O)C4CCOC4)C3)C[C@H]2C1 (stereo partly drawn) [(4,6-dimethyl-2-(trifluoromethyl)pyrimidin-5-yl)((3aR,6aS)-5-(2-(3-phenyl-1-(tetrahydrofuran-3-carbonyl)azetidin-3-yl)ethyl)hexahydropyrrolo[3,4-c]pyrrol-2(1H)-yl)methanone]"
3,3 nM,"Cc1cc(C(F)(F)F)nc(C)c1C(=O)N1C[C@H]2CN(CCC3(c4ccccc4)CN(C(=O)C4CC(F)(F)C4)C3)C[C@H]2C1 [((3aR,6aS)-5-(2-(1-(3,3-difluorocyclobutanecarbonyl)-3-phenylazetidin-3-yl)ethyl)hexahydropyrrolo[3,4-c]pyrrol-2(1H)-yl)(2,4-dimethyl-6-(trifluoromethyl)pyridin-3-yl)methanone]"
4,168 nM,"Cc1nc(C(F)(F)F)nc(C)c1C(=O)N1C[C@H]2CN(CCC3(c4ccccc4)CN(C(=O)C4CC(F)(F)C4)C3)C[C@H]2C1 [((3aR,6aS)-5-(2-(1-(3,3-difluorocyclobutanecarbonyl)-3-phenylazetidin-3-yl)ethyl)hexahydropyrrolo[3,4-c]pyrrol-2(1H)-yl)(4,6-dimethyl-2-(trifluoromethyl)pyrimidin-5-yl)methanone]"
5,2 nM,"Cc1cc(C(F)(F)F)nc(C)c1C(=O)N1C[C@H]2CN(CCC3(c4ccccc4)CN(C(=O)C4CCC(F)(F)CC4)C3)C[C@H]2C1 [((3aR,6aS)-5-(2-(1-(4,4-difluorocyclohexanecarbonyl)-3-phenylazetidin-3-yl)ethyl)hexahydropyrrolo[3,4-c]pyrrol-2(1H)-yl)(2,4-dimethyl-6-(trifluoromethyl)pyridin-3-yl)methanone]"
6,15 nM,"Cc1ccnc(C)c1C(=O)N1C[C@H]2CN(CCC3(c4ccccc4)CN(C(=O)C4CCC(F)(F)CC4)C3)C[C@H]2C1 [((3aR,6aS)-5-(2-(1-(4,4-difluorocyclohexanecarbonyl)-3-phenylazetidin-3-yl)ethyl)hexahydropyrrolo[3,4-c]pyrrol-2(1H)-yl)(2,4-dimethylpyridin-3-yl)methanone]"
7,5 nM,"Cc1nc(C(F)(F)F)nc(C)c1C(=O)N1C[C@H]2CN(CCC3(c4ccccc4)CN(C(=O)C4CCC(F)(F)CC4)C3)C[C@H]2C1 [((3aR,6aS)-5-(2-(1-(4,4-difluorocyclohexanecarbonyl)-3-phenylazetidin-3-yl)ethyl)hexahydropyrrolo[3,4-c]pyrrol-2(1H)-yl)(4,6-dimethyl-2-(trifluoromethyl)pyrimidin-5-yl)methanone]"
8,10 nM,"Cc1ncnc(C)c1C(=O)N1C[C@H]2CN(CCC3(c4ccccc4)CN(C(=O)C4CCC(F)(F)CC4)C3)C[C@H]2C1 [((3aR,6aS)-5-(2-(1-(4,4-difluorocyclohexanecarbonyl)-3-phenylazetidin-3-yl)ethyl)hexahydropyrrolo[3,4-c]pyrrol-2(1H)-yl)(4,6-dimethylpyrimidin-5-yl)methanone]"

# The remaining lines, values behind:
row,SMILES,IC50
1,"Cc1ncnc(C)c1C(=O)N1C[C@H]2CN(CCC3(c4ccccc4)CN(C(=O)C(C)(C)C)C3)C[C@H]2C1 [1-(3-(2-((3aR,6aS)-5-(4,6-dimethylpyrimidine-5-carbonyl)hexahydropyrrolo[3,4-c]pyrrol-2(1H)-yl)ethyl)-3-phenylazetidin-1-yl)-2,2-dimethylpropan-1-one]",186 nM
2,"Cc1ncnc(C)c1C(=O)N1C[C@H]2CN(CCC3(c4ccccc4)CN(C(=O)C(C)(C)CO)C3)C[C@H]2C1 [1-(3-(2-((3aR,6aS)-5-(4,6-dimethylpyrimidine-5-carbonyl)hexahydropyrrolo[3,4-c]pyrrol-2(1H)-yl)ethyl)-3-phenylazetidin-1-yl)-3-hydroxy-2,2-dimethylpropan-1-one]",310 nM
3,"Cc1ncnc(C)c1C(=O)N1C[C@H]2CN(CCC3(c4ccccc4)CCN(C(=O)C(C)(C)C)C3)C[C@H]2C1 (stereo partly drawn) [1-(3-(2-((3aR,6aS)-5-(4,6-dimethylpyrimidine-5-carbonyl)hexahydropyrrolo[3,4-c]pyrrol-2(1H)-yl)ethyl)-3-phenylpyrrolidin-1-yl)-2,2-dimethylpropan-1-one]",1940 nM
4,"Cc1ncnc(C)c1C(=O)N1C[C@H]2CN(CCC3(c4cccc(F)c4)CCN(C(=O)C(C)(C)C)CC3)C[C@H]2C1 [1-(4-(2-((3aR,6aS)-5-(4,6-dimethylpyrimidine-5-carbonyl)hexahydropyrrolo[3,4-c]pyrrol-2(1H)-yl)ethyl)-4-(3-fluorophenyl)piperidin-1-yl)-2,2-dimethylpropan-1-one]",129 nM
5,"Cc1ncnc(C)c1C(=O)N1C[C@H]2CN(CCC3(c4cccc(F)c4)CCN(C(=O)C(C)C)CC3)C[C@H]2C1 [1-(4-(2-((3aR,6aS)-5-(4,6-dimethylpyrimidine-5-carbonyl)hexahydropyrrolo[3,4-c]pyrrol-2(1H)-yl)ethyl)-4-(3-fluorophenyl)piperidin-1-yl)-2-methylpropan-1-one]",160 nM
6,"Cc1ncnc(C)c1C(=O)N1C[C@H]2CN(CCC3(c4cccc(F)c4)CCN(C(=O)CC(C)(C)C)CC3)C[C@H]2C1 [1-(4-(2-((3aR,6aS)-5-(4,6-dimethylpyrimidine-5-carbonyl)hexahydropyrrolo[3,4-c]pyrrol-2(1H)-yl)ethyl)-4-(3-fluorophenyl)piperidin-1-yl)-3,3-dimethylbutan-1-one]",339 nM
7,"Cc1ncnc(C)c1C(=O)N1C[C@H]2CN(CCC3(c4cccc(F)c4)CCN(C(=O)C(C)(C)CO)CC3)C[C@H]2C1 [1-(4-(2-((3aR,6aS)-5-(4,6-dimethylpyrimidine-5-carbonyl)hexahydropyrrolo[3,4-c]pyrrol-2(1H)-yl)ethyl)-4-(3-fluorophenyl)piperidin-1-yl)-3-hydroxy-2,2-dimethylpropan-1-one]",1000 nM
8,"CC(=O)N1CCC(CCN2C[C@@H]3CN(C(=O)c4c(C)ncnc4C)C[C@@H]3C2)(c2cccc(F)c2)CC1 [1-(4-(2-((3aR,6aS)-5-(4,6-dimethylpyrimidine-5-carbonyl)hexahydropyrrolo[3,4-c]pyrrol-2(1H)-yl)ethyl)-4-(3-fluorophenyl)piperidin-1-yl)ethanone]",> 2500 nM
9,"Cc1ncnc(C)c1C(=O)N1C[C@H]2CN(CCC3(c4ccccc4)CN(C(=O)CC4CCCC4)C3)C[C@H]2C1 [2-cyclopentyl-1-(3-(2-((3aR,6aS)-5-(4,6-dimethylpyrimidine-5-carbonyl)hexahydropyrrolo[3,4-c]pyrrol-2(1H)-yl)ethyl)-3-phenylazetidin-1-yl)ethanone]",136 nM
10,"Cc1cc(C#N)nc(C)c1C(=O)N1C[C@H]2CN(CCC3(c4ccccc4)CCN(C(=O)C(C)(C)C)C3)C[C@H]2C1 (stereo partly drawn) [4,6-dimethyl-5-((3aR,6aS)-5-(2-(3-phenyl-1-pivaloylpyrrolidin-3-yl)ethyl)octahydropyrrolo[3,4-c]pyrrole-2-carbonyl)picolinonitrile]",360 nM
11,"Cc1cc(C#N)nc(C)c1C(=O)N1C[C@H]2CN(CCC3(c4ccccc4)CCN(C(=O)C4CCCC4)C3)C[C@H]2C1 (stereo partly drawn) [5-((3aR,6aS)-5-(2-(1-(cyclopentanecarbonyl)-3-phenylpyrrolidin-3-yl)ethyl)octahydropyrrolo[3,4-c]pyrrole-2-carbonyl)-4,6-dimethylpicolinonitrile]",85 nM
12,"Cc1cc(C#N)nc(C)c1C(=O)N1C[C@H]2CN(CCC3(c4cccc(F)c4)CCN(C(=O)C(C)(C)C)CC3)C[C@H]2C1 [5-((3aR,6aS)-5-(2-(4-(3-fluorophenyl)-1-pivaloylpiperidin-4-yl)ethyl)octahydropyrrolo[3,4-c]pyrrole-2-carbonyl)-4,6-dimethylpicolinonitrile]",37 nM
13,"Cc1ncnc(C)c1C(=O)N1C[C@H]2CN(CCC3(c4ccccc4)CN(C(=O)C4CCOC4)C3)C[C@H]2C1 (stereo partly drawn) [(4,6-dimethylpyrimidin-5-yl)((3aR,6aS)-5-(2-(3-phenyl-1-(tetrahydrofuran-3-carbonyl)azetidin-3-yl)ethyl)hexahydropyrrolo[3,4-c]pyrrol-2(1H)-yl)methanone]",559 nM
14,"Cc1ncnc(C)c1C(=O)N1C[C@H]2CN(CCC3(c4ccccc4)CN(C(=O)C4CC(F)(F)C4)C3)C[C@H]2C1 [((3aR,6aS)-5-(2-(1-(3,3-difluorocyclobutanecarbonyl)-3-phenylazetidin-3-yl)ethyl)hexahydropyrrolo[3,4-c]pyrrol-2(1H)-yl)(4,6-dimethylpyrimidin-5-yl)methanone]",93 nM
15,"Cc1ncnc(C)c1C(=O)N1C[C@H]2CN(CCC3(c4ccccc4)CN(S(=O)(=O)C4CCCC4)C3)C[C@H]2C1 [((3aR,6aS)-5-(2-(1-(cyclopentylsulfonyl)-3-phenylazetidin-3-yl)ethyl)hexahydropyrrolo[3,4-c]pyrrol-2(1H)-yl)(4,6-dimethylpyrimidin-5-yl)methanone]",458 nM
